Legend:
Tyrosinase [1] = biological target: T1, Tyrosinase (Homo sapiens, UniProt P14679)
T1 sequence (P14679 whole entry): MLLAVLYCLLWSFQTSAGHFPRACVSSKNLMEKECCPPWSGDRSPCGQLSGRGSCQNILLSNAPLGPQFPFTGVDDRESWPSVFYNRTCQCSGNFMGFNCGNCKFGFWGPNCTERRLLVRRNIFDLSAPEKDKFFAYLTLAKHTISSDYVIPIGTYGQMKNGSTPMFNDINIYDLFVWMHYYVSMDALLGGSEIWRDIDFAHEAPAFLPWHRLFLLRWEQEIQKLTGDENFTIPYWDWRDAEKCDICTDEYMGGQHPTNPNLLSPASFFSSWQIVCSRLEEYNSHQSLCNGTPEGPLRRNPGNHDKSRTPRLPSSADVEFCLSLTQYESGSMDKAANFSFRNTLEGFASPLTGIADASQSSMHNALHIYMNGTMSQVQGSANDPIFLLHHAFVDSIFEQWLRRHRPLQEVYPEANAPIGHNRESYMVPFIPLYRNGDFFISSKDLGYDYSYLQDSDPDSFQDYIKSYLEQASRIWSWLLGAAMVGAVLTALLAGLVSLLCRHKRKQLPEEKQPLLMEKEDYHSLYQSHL
Description: Inhibition of tyrosinase in human MNT-1 cells using L-DOPA as substrate preincubated for 10 mins followed by substrate addition measured after 180 mins by absorbance based spectramax microplate reader assay

MNT-1 [2] = assay: cells; details: Homo sapiens, MNT-1, 336 h
Description: Inhibition of melanogenesis in human MNT-1 cells incubated for 14 days

MNT-1 [3] = assay: cells; details: Homo sapiens, MNT-1, 336 h; remark: listed apart in the source
Description: Cytotoxicity against human MNT-1 cells incubated for 14 days by resazurin assay

MNT-1 [4] = assay: cells; details: Homo sapiens, MNT-1, 96 h
Description: Inhibition of melanogenesis in human MNT-1 cells incubated for 4 days

MNT-1 [5] = assay: cells; details: Homo sapiens, MNT-1, 96 h; remark: listed apart in the source
Description: Cytotoxicity against human MNT-1 cells incubated for 4 days by resazurin assay

Mushroom tyrosinase = Mushroom tyrosinase (Agaricus bisporus, UniProt O42713+Q00024+C7FF04+C7FF05); assay: Inhibition of mushroom tyrosinase using L-DOPA as substrate preincubated for 10 mins followed by substrate addition measured after 10 mins by absorbance based spectramax microplate reader assay; type: protein assay
Tyrosinase [6] = biological target: T1, Tyrosinase; assay: Inhibition of His-tagged human tyrosinase expressed in HEK293 cells using L-DOPA as substrate by microplate reader analysis

Structure (SMILES) | IC50 (Tyrosinase [1]) | IC50 (MNT-1 [2]) | CC50 (MNT-1 [3]) | IC50 (MNT-1 [4]) | CC50 (MNT-1 [5]) | IC50 (Mushroom tyrosinase) | IC50 (Tyrosinase [6])
CC(C)C(=O)Nc1nc(-c2ccc(O)cc2O)cs1 | 0.17 µM | 0.28 µM | 36 µM | 10 µM | > 100 µM | – | –
O=C1/C(=C/c2ccc(O)cc2O)Cc2c(O)cccc21 | – | – | – | – | – | 0.09 µM | –
CC(C)[C@@H](N)C(=O)Nc1cccc2c1C/C(=C\c1ccc(O)cc1O)C2=O | – | – | – | – | – | 0.46 µM | –
O=C1/C(=C/c2ccc(O)cc2O)Cc2c(Br)cccc21 | – | – | – | – | – | 0.086 µM | –
O=C1/C(=C/c2ccc(O)cc2O)Cc2c1cccc2[N+](=O)[O-] | > 100 µM | – | – | – | – | 0.16 µM | –
CCCC(=O)Nc1cccc2c1C/C(=C\c1ccc(O)cc1O)C2=O | – | 2 µM | 77 µM | 24 µM | > 100 µM | 0.006 µM | –
O=C(Nc1cccc2c1C/C(=C\c1ccc(O)cc1O)C2=O)c1ccccc1 | – | – | – | – | – | 0.1 µM | –
Nc1cccc2c1C/C(=C\c1ccc(O)cc1O)C2=O | – | 0.53 µM | 66 µM | 3.8 µM | > 100 µM | 0.027 µM | –
C[C@H](N)C(=O)Nc1cccc2c1C/C(=C\c1ccc(O)cc1O)C2=O | – | 4.6 µM | 94 µM | 19 µM | > 100 µM | 0.6 µM | –
CNc1cccc2c1C/C(=C\c1ccc(O)cc1O)C2=O | – | 0.77 µM | 29 µM | 3.2 µM | 78 µM | 0.014 µM | –
N#Cc1cccc2c1C/C(=C\c1ccc(O)cc1O)C2=O | – | – | – | – | – | 0.26 µM | –
COc1cccc2c1C/C(=C\c1ccc(O)cc1O)C2=O | – | – | – | – | – | 0.16 µM | –
O=C1/C(=C/c2ccc(O)cc2O)Cc2c(F)cccc21 | – | – | – | – | – | 0.15 µM | –
CCC(=O)Nc1cccc2c1C/C(=C\c1ccc(O)cc1O)C2=O | – | 3.1 µM | 65 µM | 8 µM | > 100 µM | 0.014 µM | –
O=C1/C(=C/c2ccc(O)cc2O)Cc2c1cccc2C(F)(F)F | > 100 µM | – | – | – | – | 0.18 µM | –
CC(=O)Nc1cccc2c1C/C(=C\c1ccc(O)cc1O)C2=O | – | 3.3 µM | 67 µM | 19 µM | > 100 µM | 0.009 µM | –
Cc1cccc2c1C/C(=C\c1ccc(O)cc1O)C2=O | – | 4.1 µM | 61 µM | 21 µM | > 100 µM | 0.019 µM | –
NCC(=O)Nc1cccc2c1C/C(=C\c1ccc(O)cc1O)C2=O | – | 12 µM | > 100 µM | 29 µM | > 100 µM | 0.39 µM | –
CC(C)C(=O)Nc1cccc2c1C/C(=C\c1ccc(O)cc1O)C2=O | – | 2.1 µM | 62 µM | 7 µM | > 100 µM | 0.06 µM | –
CN(C)c1cccc2c1C/C(=C\c1ccc(O)cc1O)C2=O | – | – | – | – | – | 0.083 µM | –
Oc1cccc(O)c1 [RESORCINOL] | – | – | – | – | – | – | > 3000 µM
